Experimental data from paper PMC5487684, “Safety, Pharmacokinetics, and Antiviral Activity of a Novel HIV Antiviral, ABX464, in Treatment-Naive HIV-Infected Subjects in a Phase 2 Randomized, Controlled Study” (Antimicrobial Agents and Chemotherapy, 2017).

Test system: HIV-infected subjects
Experiment: Safety and tolerability (TEAEs, ECG, laboratory) after repeated oral administration, phase 2a study
Format: in vivo, human
Conditions: for Subjects experiencing at least one TEAE: Flank pain / Subjects experiencing at least one TEAE: Headache / Subjects experiencing at least one TEAE: Injury, poisoning, and procedural complications / Subjects experiencing at least one TEAE: Musculoskeletal and connective tissue disorders / Subjects experiencing at least one TEAE: Nausea / Subjects experiencing at least one TEAE: Neck pain / Subjects experiencing at least one TEAE: Nervous system disorders / Subjects experiencing at least one TEAE: Pain in extremity / Subjects experiencing at least one TEAE: Sciatica, back pain / Subjects experiencing at least one TEAE: Skin abrasion / Subjects experiencing at least one TEAE: Total / Subjects experiencing at least one TEAE: Upper abdominal pain / Subjects experiencing at least one TEAE: Vomiting / Subjects experiencing at least one TEAE: Abdominal pain / Subjects experiencing at least one TEAE: Arthralgia / Subjects experiencing at least one TEAE: Back pain / Subjects experiencing at least one TEAE: Diarrhea / Subjects experiencing at least one TEAE: Gastrointestinal disorders: fed
Experimental: Participants were assigned to one of eight groups; each group (with one exception) included eight subjects receiving either ABX464 (n = 6) or the corresponding placebo (n = 2) according to a randomization code. […] In the present study with HIV-infected subjects, the first dose administered was 25 mg, given once or 3 times a day over a 2- to 3-week period. This initial dose was therefore considered safe for assessment of the safety and tolerability of ABX464 after repeated oral administrations in subjects infected by HIV and determination of the potential effect on the HIV viral load.
The final dosing protocol for each of the eight groups was as follows: group 1, 25 mg every 3 days for 2 to 3 weeks under fasted conditions; group 2, 25 mg once a day (q.d.) for 2 to 3 weeks under fasted conditions; group 3, 50 mg once a day for 2 to 3 weeks under fasted conditions; group 4, 50 mg 3 times a day (t.i.d.) for 4 weeks under fed conditions; group 5, 75 mg once a day for 2 weeks under fed conditions; group 6, 100 mg once a day for 2 to 3 weeks under fasted conditions; group 7, 150 mg every 3 days for 2 to 3 weeks under fed conditions; and group 8, 150 mg once a day for 2 weeks under fed conditions. Per the study protocol, the treatment period was defined as 2 weeks. […] The decision to proceed to the next highest dose was determined by the data and safety monitoring board after review of the laboratory safety data, vital signs, ECGs, and adverse event reports from the group receiving the current dose after 2 weeks of treatment.
Subjects were hospitalized from the day prior to the first dose to at least the morning of day 2. They were orally dosed with 25-mg capsules of ABX464 with 240 ml water under fed or fasted conditions. According to the group, subjects were dosed with 1, 2, 3, 4, or 6 capsules to deliver 25 mg, 50 mg, 75 mg, 100 mg, or 150 mg product, respectively, or the same number of placebo capsules.
Safety assessments and laboratory tests were carried out according to the schedules described in Table S4 for groups dosed every day, every 3 days, and 3 times a day. Follow-up visits were scheduled for 7 days after the last dose and subsequently once every week in order to assess the elimination of the main ABX464 metabolite and to assess the viral load. Follow-up visits were terminated when the virus load was within 0.5 log of the baseline value or after 3 follow-up visits, whichever came first. Prior to the statistical analyses, AEs were coded using the Medical Dictionary for Regulatory Activities (MedDRA dictionary; last available version) in order to be tabulated by system organ class (SOC) and preferred term (PT). The AEs were analyzed according to the treatment emergence phase from the first study drug administration on day 1 up to 48 h after the last study drug administration. The number and percentage of subjects with at least one TEAE were tabulated by SOC and PT for each group and dose. The number of occurrences of TEAEs was also analyzed in the same way by SOC and PT for each group and dose, by grade of severity for each group and dose, and by level of causality to the study drug for each group and dose.

[1] = Group 7 (n = 6), 150 mg every 3 days, Mild
[2] = Group 7 (n = 6), 150 mg every 3 days, Moderate
[3] = Group 8 (n = 6), 150 mg q.d., Mild
[4] = Group 8 (n = 6), 150 mg q.d., Moderate

SMILES: FC(F)(F)Oc1ccc(Nc2ccc3cccc(Cl)c3n2)cc1 [ABX464]
- Subjects experiencing at least one TEAE: Flank pain [1]: 0 (0.0) No. (%)
- Subjects experiencing at least one TEAE: Headache [1]: 4 (66.7) No. (%)
- Subjects experiencing at least one TEAE: Injury, poisoning, and procedural complications [1]: 0 (0.0) No. (%)
- Subjects experiencing at least one TEAE: Musculoskeletal and connective tissue disorders [1]: 1 (16.7) No. (%)
- Subjects experiencing at least one TEAE: Nausea [1]: 4 (66.7) No. (%)
- Subjects experiencing at least one TEAE: Neck pain [1]: 0 (0.0) No. (%)
- Subjects experiencing at least one TEAE: Nervous system disorders [1]: 4 (66.7) No. (%)
- Subjects experiencing at least one TEAE: Pain in extremity [1]: 0 (0.0) No. (%)
- Subjects experiencing at least one TEAE: Sciatica, back pain [1]: 0 (0.0) No. (%)
- Subjects experiencing at least one TEAE: Skin abrasion [1]: 0 (0.0) No. (%)
- Subjects experiencing at least one TEAE: Total [1]: 5 (83.3) No. (%)
- Subjects experiencing at least one TEAE: Upper abdominal pain [1]: 0 (0.0) No. (%)
- Subjects experiencing at least one TEAE: Vomiting [1]: 1 (16.7) No. (%)
- Subjects experiencing at least one TEAE: Abdominal pain [2]: 0 (0.0) No. (%)
- Subjects experiencing at least one TEAE: Arthralgia [2]: 0 (0.0) No. (%)
- Subjects experiencing at least one TEAE: Back pain [2]: 0 (0.0) No. (%)
- Subjects experiencing at least one TEAE: Diarrhea [2]: 0 (0.0) No. (%)
- Subjects experiencing at least one TEAE: Flank pain [2]: 0 (0.0) No. (%)
- Subjects experiencing at least one TEAE: Gastrointestinal disorders [2]: 3 (50.0) No. (%)
- Subjects experiencing at least one TEAE: Headache [2]: 3 (50.0) No. (%)
- Subjects experiencing at least one TEAE: Injury, poisoning, and procedural complications [2]: 0 (0.0) No. (%)
- Subjects experiencing at least one TEAE: Musculoskeletal and connective tissue disorders [2]: 0 (0.0) No. (%)
- Subjects experiencing at least one TEAE: Nausea [2]: 3 (50.0) No. (%)
- Subjects experiencing at least one TEAE: Neck pain [2]: 0 (0.0) No. (%)
- Subjects experiencing at least one TEAE: Nervous system disorders [2]: 4 (66.7) No. (%)
- Subjects experiencing at least one TEAE: Pain in extremity [2]: 0 (0.0) No. (%)
- Subjects experiencing at least one TEAE: Sciatica, back pain [2]: 0 (0.0) No. (%)
- Subjects experiencing at least one TEAE: Skin abrasion [2]: 0 (0.0) No. (%)
- Subjects experiencing at least one TEAE: Total [2]: 4 (66.7) No. (%)
- Subjects experiencing at least one TEAE: Upper abdominal pain [2]: 0 (0.0) No. (%)
- Subjects experiencing at least one TEAE: Vomiting [2]: 3 (50.0) No. (%)
- Subjects experiencing at least one TEAE: Abdominal pain [3]: 1 (16.7) No. (%)
- Subjects experiencing at least one TEAE: Arthralgia [3]: 0 (0.0) No. (%)
- Subjects experiencing at least one TEAE: Back pain [3]: 0 (0.0) No. (%)
- Subjects experiencing at least one TEAE: Diarrhea [3]: 0 (0.0) No. (%)
- Subjects experiencing at least one TEAE: Flank pain [3]: 0 (0.0) No. (%)
- Subjects experiencing at least one TEAE: Gastrointestinal disorders [3]: 6 (100.0) No. (%)
- Subjects experiencing at least one TEAE: Headache [3]: 6 (100.0) No. (%)
- Subjects experiencing at least one TEAE: Injury, poisoning, and procedural complications [3]: 0 (0.0) No. (%)
- Subjects experiencing at least one TEAE: Musculoskeletal and connective tissue disorders [3]: 1 (16.7) No. (%)
- Subjects experiencing at least one TEAE: Nausea [3]: 6 (100.0) No. (%)
- Subjects experiencing at least one TEAE: Neck pain [3]: 0 (0.0) No. (%)
- Subjects experiencing at least one TEAE: Nervous system disorders [3]: 6 (100.0) No. (%)
- Subjects experiencing at least one TEAE: Pain in extremity [3]: 1 (16.7) No. (%)
- Subjects experiencing at least one TEAE: Sciatica, back pain [3]: 0 (0.0) No. (%)
- Subjects experiencing at least one TEAE: Skin abrasion [3]: 0 (0.0) No. (%)
- Subjects experiencing at least one TEAE: Total [3]: 6 (100.0) No. (%)
- Subjects experiencing at least one TEAE: Upper abdominal pain [3]: 0 (0.0) No. (%)
- Subjects experiencing at least one TEAE: Vomiting [3]: 4 (66.7) No. (%)
- Subjects experiencing at least one TEAE: Abdominal pain [4]: 0 (0.0) No. (%)
- Subjects experiencing at least one TEAE: Arthralgia [4]: 0 (0.0) No. (%)
- Subjects experiencing at least one TEAE: Back pain [4]: 0 (0.0) No. (%)
- Subjects experiencing at least one TEAE: Diarrhea [4]: 0 (0.0) No. (%)
- Subjects experiencing at least one TEAE: Flank pain [4]: 0 (0.0) No. (%)
- Subjects experiencing at least one TEAE: Headache [4]: 0 (0.0) No. (%)
- Subjects experiencing at least one TEAE: Injury, poisoning, and procedural complications [4]: 1 (16.7) No. (%)
- Subjects experiencing at least one TEAE: Musculoskeletal and connective tissue disorders [4]: 0 (0.0) No. (%)
- Subjects experiencing at least one TEAE: Nausea [4]: 0 (0.0) No. (%)
- Subjects experiencing at least one TEAE: Neck pain [4]: 0 (0.0) No. (%)
- Subjects experiencing at least one TEAE: Nervous system disorders [4]: 0 (0.0) No. (%)
- Subjects experiencing at least one TEAE: Pain in extremity [4]: 0 (0.0) No. (%)
- Subjects experiencing at least one TEAE: Sciatica, back pain [4]: 0 (0.0) No. (%)
- Subjects experiencing at least one TEAE: Skin abrasion [4]: 1 (16.7) No. (%)
- Subjects experiencing at least one TEAE: Total [4]: 1 (16.7) No. (%)
- Subjects experiencing at least one TEAE: Upper abdominal pain [4]: 0 (0.0) No. (%)
- Subjects experiencing at least one TEAE: Vomiting [4]: 0 (0.0) No. (%)
- Frequency of subjects receiving ABX464 who reported TEAEs (all other groups (4 to 8)): 100%
- Subjects with vomiting episodes (group receiving 150 mg ABX464): 66.7%
- Changes in laboratory parameters between baseline and posttreatment (in vivo): none of the changes in any laboratory parameter observed between baseline and posttreatment measurements suggested an impact
- Electrocardiogram (ECG) parameters (in vivo): no clinically significant abnormalities
- Product-related SAEs (in vivo): no product-related SAEs occurred
- Subjects reporting upper abdominal pain (overall): 6%
- Number of AEs reported (subjects who received the study drug, regardless of the dose or the drug regimen): 158 AEs
- Subjects reporting upper abdominal pain (twenty cases, none in placebo): 4 subjects
- Overall safety and tolerability (up to 150 mg once a day, HIV-infected subjects): safe and well tolerated
